Reference: ChEMBL document CHEMBL1782050, “Discovery of new nanomolar peroxisome proliferator-activated receptor γ activators via elaborate ligand-based modeling” (Eur J Med Chem, 2011)

What follows are compounds tested against T1, Peroxisome proliferator-activated receptor gamma (Homo sapiens, UniProt P37231).
T1 sequence (P37231 whole entry): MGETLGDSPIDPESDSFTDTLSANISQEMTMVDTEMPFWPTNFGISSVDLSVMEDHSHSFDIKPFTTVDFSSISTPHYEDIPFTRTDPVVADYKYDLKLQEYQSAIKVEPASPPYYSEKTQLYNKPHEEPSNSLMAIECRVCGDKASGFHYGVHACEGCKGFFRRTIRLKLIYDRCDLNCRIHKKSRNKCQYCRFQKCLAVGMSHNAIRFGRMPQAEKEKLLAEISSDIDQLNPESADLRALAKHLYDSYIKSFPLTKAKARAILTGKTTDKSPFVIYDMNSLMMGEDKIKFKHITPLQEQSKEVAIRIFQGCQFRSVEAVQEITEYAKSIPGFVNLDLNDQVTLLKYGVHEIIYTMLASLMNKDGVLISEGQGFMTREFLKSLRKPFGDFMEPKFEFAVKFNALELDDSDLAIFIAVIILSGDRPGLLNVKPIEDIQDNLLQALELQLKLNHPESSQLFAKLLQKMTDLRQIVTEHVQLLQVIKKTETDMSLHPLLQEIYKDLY
Assay type: functional, cell-based, HepG2
Description: Agonist activity at PPARgamma receptor expressed in human HepG2 cells by PPRE-luciferase reporter gene assay
Compound `COc1ccc(-c2nc(SCC(=O)O)n(-c3ccccn3)c2-c2ccc(OC)cc2)cc1` has an EC50 of 224 nM. For `Cc1ccc(S(=O)(=O)Oc2ccc(N(CC(=O)O)S(=O)(=O)c3ccc(C)cc3)cc2)cc1`, the EC50 was 15.3 nM. `COC1=C(OC)Cc2c(cc[n+]3c(CCC(=O)O)c4cc(OC)c(OC)cc4cc23)C1` gave an EC50 of 220000 nM.
